7 compounds from publication PMC11649115, “In vitro safety evaluation of dopamine D3R antagonist, R-VK4-116, as a potential medication for the treatment of opioid use disorder” (PLOS ONE, 2024) can be followed below.

A word on the AC50: it is the concentration giving half of the maximal activity seen.

In one data set the target is T1, Kir2.1 (Homo sapiens, UniProt P63252).
T1 sequence (P63252 1-427): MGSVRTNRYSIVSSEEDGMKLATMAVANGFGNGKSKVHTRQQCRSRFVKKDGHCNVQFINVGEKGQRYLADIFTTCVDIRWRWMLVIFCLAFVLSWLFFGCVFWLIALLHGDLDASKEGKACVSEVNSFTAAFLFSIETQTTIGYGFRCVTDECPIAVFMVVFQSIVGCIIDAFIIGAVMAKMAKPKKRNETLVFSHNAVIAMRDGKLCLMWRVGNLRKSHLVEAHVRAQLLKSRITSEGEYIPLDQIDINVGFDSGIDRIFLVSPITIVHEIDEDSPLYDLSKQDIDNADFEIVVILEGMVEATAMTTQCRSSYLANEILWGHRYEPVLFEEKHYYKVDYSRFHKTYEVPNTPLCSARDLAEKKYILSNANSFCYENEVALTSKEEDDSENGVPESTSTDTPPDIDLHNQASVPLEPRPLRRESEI
Briefly: CiPA IonChannelProfiler Cardiac Panel, QPatch. The data set is classed as cell-based. As to conditions: mean of two sample results.

The target of data set [1] is T2, CYP1A2 (Homo sapiens, UniProt P05177).
T2 sequence (P05177 1-516): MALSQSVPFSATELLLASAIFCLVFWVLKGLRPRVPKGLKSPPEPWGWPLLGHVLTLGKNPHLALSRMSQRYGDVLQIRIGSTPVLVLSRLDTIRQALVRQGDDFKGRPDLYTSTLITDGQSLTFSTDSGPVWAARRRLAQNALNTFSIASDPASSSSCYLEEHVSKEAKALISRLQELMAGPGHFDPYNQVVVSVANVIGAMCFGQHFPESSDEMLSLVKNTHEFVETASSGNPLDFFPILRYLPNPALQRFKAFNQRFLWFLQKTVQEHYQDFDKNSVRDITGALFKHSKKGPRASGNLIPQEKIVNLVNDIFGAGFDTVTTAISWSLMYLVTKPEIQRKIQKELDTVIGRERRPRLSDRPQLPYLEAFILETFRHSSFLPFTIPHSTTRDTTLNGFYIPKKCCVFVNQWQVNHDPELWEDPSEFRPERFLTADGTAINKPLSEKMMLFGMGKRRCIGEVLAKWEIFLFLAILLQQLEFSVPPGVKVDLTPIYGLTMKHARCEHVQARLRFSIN
The experiment in a line: CYP inhibition in human liver microsomes. The conditions noted are these: human, human liver microsomes, probe phenacetin. For orientation: Liver microsomes are a subcellular fraction often used to study metabolism.

A further data set addresses T3, CYP2B6 (Homo sapiens, UniProt P20813).
T3 sequence (P20813 1-491): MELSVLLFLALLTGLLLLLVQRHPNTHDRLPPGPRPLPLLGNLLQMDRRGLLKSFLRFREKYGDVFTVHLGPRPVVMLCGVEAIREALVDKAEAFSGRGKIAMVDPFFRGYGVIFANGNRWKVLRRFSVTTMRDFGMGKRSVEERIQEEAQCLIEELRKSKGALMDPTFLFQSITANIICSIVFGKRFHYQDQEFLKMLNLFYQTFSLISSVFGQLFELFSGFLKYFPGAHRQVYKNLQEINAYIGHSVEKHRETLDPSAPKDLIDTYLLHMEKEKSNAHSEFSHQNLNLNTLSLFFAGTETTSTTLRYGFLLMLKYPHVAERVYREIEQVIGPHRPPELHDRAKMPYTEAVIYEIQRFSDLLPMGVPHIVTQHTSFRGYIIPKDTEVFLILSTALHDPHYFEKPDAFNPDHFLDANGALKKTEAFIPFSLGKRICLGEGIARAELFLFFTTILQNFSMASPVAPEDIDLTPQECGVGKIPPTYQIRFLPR
Briefly: CYP inhibition in human liver microsomes. As to conditions: human, human liver microsomes, probe bupropion.

The target in a further data set is T4, CYP2C8 (Homo sapiens, UniProt P10632).
T4 sequence (P10632 1-490): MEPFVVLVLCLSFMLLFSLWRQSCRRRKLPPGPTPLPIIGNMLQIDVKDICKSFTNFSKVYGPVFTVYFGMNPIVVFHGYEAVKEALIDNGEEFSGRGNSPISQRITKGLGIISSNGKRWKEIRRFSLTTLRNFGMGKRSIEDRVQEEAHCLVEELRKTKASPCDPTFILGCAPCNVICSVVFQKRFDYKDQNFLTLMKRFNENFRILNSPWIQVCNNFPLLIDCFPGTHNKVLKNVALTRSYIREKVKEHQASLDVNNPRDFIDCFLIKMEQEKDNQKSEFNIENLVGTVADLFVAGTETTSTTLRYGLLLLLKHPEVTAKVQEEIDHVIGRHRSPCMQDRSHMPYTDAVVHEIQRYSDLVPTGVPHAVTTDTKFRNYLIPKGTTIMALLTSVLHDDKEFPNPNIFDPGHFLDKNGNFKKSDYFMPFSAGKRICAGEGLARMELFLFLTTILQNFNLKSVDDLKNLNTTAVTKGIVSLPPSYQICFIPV
Briefly: CYP inhibition in human liver microsomes. The conditions noted are these: human, human liver microsomes, probe paclitaxel.

Another data set deals with CYP2C9 (Homo sapiens, UniProt P11712). Briefly: CYP inhibition in human liver microsomes. As to conditions: human.
In a further data set the target is CYP2C19 (Homo sapiens, UniProt P33261). Briefly: CYP inhibition in human liver microsomes. As to conditions: human, human liver microsomes, probe mephenytoin.
Another data set deals with CYP1A2 mRNA. The experiment in a line: CYP induction, mRNA, primary cultured human hepatocytes. The conditions noted are these: read-out: CYP1A2 mRNA Fold Induction (fold of vehicle control). The data set is classed as in vitro ADME.
Data set [2] has as its system CYP1A2. Briefly: CYP induction, in situ catalytic activity, human hepatocytes. Type of data set: in vitro ADME.
From the text: (§1) Rifampicin as a positive control and solvent (0.1% DMSO) vehicle control were also included. The acceptance criteria for CYP induction was ≥ 2-fold induction for significant CYP activity, while the acceptance criteria for CYP mRNA was ≥ 4-fold for significant CYP induction.
A short description of data set [3]: Phospholipidosis and steatosis, high content screening. Type of data set: cell-based. On the set-up: key to Cell count, Trend (↑↓) / Nuclear size, Trend (↑↓) / DNA structure, Trend (↑↓) / Phospholipidosis, Trend (↑↓) / Steatosis, Trend (↑↓): ↑: increasing trend of response; ↓: decreasing trend of response. The conditions noted are these: human, HepG2 cells.
In another data set the test system is HepG2 cells. The data set is described as above. The data set is classed as cell-based. Also on record: key to Cell count, Trend (↑↓) / Nuclear size, Trend (↑↓) / DNA structure, Trend (↑↓) / Phospholipidosis, Trend (↑↓) / Steatosis, Trend (↑↓): ↑: increasing trend of response; ↓: decreasing trend of response. As to conditions: for Steatosis, MEC: (NS) = not statistically significant.

In a further data set the target is CYP3A4 (Homo sapiens, UniProt P08684). The experiment in a line: in vitro. The conditions noted are these: microsomes.
A further data set addresses CYP2D6 (Homo sapiens, UniProt P10635). The experiment in a line: CYP inhibition in human liver microsomes. The conditions noted are these: human, human liver microsomes, probe bufuralol.
For a further data set, the system named is human hepatocytes. The experiment in a line: MTT assay, hepatocyte viability. The data set is classed as cell-based. On the technique in general: Tetrazolium assays rely on reduction of a dye to a coloured formazan, in cell work by metabolically active cells.
The mark [4] stands for this setting: # AC50 greater than the maximum surviving concentration, (NS) = not statistically significant, read-out: Steatosis, AC50.
[5] abbreviates: read-out: Phospholipidosis, AC50.

Read-outs that look alike come from different tables or passages of the source.

Sequence of CYP3A4 (P08684 2-503): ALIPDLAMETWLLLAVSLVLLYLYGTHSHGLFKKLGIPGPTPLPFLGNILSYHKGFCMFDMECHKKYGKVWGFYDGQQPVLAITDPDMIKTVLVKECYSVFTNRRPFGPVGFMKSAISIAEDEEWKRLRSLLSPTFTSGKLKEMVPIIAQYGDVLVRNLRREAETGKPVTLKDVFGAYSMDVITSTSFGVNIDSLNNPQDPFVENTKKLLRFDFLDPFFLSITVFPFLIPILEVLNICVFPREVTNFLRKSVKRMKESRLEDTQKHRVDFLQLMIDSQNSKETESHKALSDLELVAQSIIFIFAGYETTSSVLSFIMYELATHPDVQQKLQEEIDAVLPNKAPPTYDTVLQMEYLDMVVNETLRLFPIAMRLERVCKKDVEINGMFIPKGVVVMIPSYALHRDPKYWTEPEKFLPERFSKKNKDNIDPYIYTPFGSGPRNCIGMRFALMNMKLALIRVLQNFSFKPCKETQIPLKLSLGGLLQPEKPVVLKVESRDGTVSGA
Sequence of CYP2C9 (P11712 whole entry): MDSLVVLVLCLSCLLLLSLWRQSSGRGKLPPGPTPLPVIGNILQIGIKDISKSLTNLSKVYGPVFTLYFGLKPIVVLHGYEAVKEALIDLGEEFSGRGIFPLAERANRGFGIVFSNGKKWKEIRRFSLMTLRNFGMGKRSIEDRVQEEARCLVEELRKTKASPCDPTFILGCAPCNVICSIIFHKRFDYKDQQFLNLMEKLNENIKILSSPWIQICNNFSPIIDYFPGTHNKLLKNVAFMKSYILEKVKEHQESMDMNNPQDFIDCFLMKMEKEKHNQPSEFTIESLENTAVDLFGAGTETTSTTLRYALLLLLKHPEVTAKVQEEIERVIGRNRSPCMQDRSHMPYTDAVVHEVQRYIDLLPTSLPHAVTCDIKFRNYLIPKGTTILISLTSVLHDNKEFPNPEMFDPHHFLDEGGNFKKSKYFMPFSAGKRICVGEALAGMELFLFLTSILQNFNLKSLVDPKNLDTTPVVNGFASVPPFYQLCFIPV
Sequence of CYP2C19 (P33261 whole entry): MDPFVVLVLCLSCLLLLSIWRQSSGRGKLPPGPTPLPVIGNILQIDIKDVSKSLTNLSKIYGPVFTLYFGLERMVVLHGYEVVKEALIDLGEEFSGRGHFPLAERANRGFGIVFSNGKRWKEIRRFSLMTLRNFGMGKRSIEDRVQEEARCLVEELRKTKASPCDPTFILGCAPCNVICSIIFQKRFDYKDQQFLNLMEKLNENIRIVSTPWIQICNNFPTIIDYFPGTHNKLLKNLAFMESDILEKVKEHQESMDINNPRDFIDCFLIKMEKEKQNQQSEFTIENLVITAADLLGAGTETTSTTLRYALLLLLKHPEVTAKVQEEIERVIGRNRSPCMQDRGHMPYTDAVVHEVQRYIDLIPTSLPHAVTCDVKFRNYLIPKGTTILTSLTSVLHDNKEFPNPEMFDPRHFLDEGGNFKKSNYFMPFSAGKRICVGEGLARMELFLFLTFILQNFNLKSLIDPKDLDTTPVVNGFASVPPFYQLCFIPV
Sequence of CYP2D6 (P10635 whole entry): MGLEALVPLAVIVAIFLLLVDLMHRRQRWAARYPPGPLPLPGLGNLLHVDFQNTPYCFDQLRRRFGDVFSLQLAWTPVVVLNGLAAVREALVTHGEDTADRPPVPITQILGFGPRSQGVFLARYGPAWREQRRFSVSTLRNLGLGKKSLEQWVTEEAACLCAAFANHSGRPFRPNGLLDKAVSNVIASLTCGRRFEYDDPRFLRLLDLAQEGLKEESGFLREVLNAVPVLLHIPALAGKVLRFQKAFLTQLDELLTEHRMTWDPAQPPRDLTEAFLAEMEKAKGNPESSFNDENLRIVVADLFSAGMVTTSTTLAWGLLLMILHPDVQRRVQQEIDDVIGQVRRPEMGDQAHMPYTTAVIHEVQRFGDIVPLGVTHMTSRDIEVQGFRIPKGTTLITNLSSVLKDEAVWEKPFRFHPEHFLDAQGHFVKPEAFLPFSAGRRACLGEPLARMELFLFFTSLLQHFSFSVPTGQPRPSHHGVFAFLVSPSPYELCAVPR
From the text for CYP1A2 mRNA: as §1

`CCc1cc(Cl)c(OC)c(N2CCN(C[C@H](O)CCNC(=O)c3cc4ccccc4[nH]3)CC2)c1` [(R)-VK4-116]: the “Mean % inhibition on hKir2.1 (End)” value at Kir2.1 (0.01 µM) is recorded as 8.24%; at Kir2.1 (0.1 µM), 12.22%; on Kir2.1 (1 µM), 16.36%; at Kir2.1 (10 µM), 18.23%; on Kir2.1 (100 µM) it was 97.19%. In addition, the “Mean % inhibition on hKir2.1 (Peak)” value on Kir2.1 (0.01 µM) came to 9.54%; on Kir2.1 (0.1 µM), 14.42%; at Kir2.1 (1 µM), 19.01%; on Kir2.1 (10 µM) it was 21.58%; on Kir2.1 (100 µM), 52.64%.
Regarding `[Ba+2].[Cl-].[Cl-]` [Barium Chloride], the “Mean % inhibition on hKir2.1 (End)” value was 11.87% on Kir2.1 (1 µM); 30.43% on Kir2.1 (3 µM); 55.57% on Kir2.1 (10 µM); 85.21% on Kir2.1 (30 µM); 89.33% on Kir2.1 (100 µM). In addition, the “Mean % inhibition on hKir2.1 (Peak)” value on Kir2.1 (1 µM) is listed as 6.70%; at Kir2.1 (3 µM) it was 11.92%; at Kir2.1 (10 µM) it was 17.51%; on Kir2.1 (30 µM) it was 27.21%; on Kir2.1 (100 µM), 45.99%.
As for `CC(=O)N1CCN(c2ccc(OCC3COC(Cn4ccnc4)(c4ccc(Cl)cc4Cl)O3)cc2)CC1` (centres unmarked) [Ketoconazole], the activity at 20 min, 5 µM is 70.7 ± 2.2% at CYP1A2 [1]; 49.1 ± 0.7% at CYP2B6; 45.7 ± 4.7% on CYP2C8; 65.8 ± 1.9% on CYP2C9 (human liver microsomes, probe diclofenac); 82.9 ± 2.8% on CYP2C19.
Turning to `COc1ccc2[nH]c([S+]([O-])Cc3ncc(C)c(OC)c3C)nc2c1` (centres unmarked) [Omeprazole, reference compound], the fold induction at 48 h, 50 µM was determined as 115 with CYP1A2 mRNA (Lot 336, 50 µM); 361 in the data set with CYP1A2 mRNA (Lot 348B, 50 µM); 232 in the data set on CYP1A2 mRNA (Lot 399, 50 µM). Also, the “CYP1A2 activity, Fold of Vehicle Control” value with CYP1A2 [2] (Lot 336, 50 µM) was found to be 17 fold; in the data set with CYP1A2 [2] (Lot 348B, 50 µM) it was 44 fold; in the data set on CYP1A2 [2] (Lot 399, 50 µM), 23 fold. In the data set on CYP1A2 [2] (Lot 399, 50 µM), this compound gave a Phenacetin-O- deethylation of 186 pmol/min/106 cells.
Regarding `CN[C@H]1CC[C@@H](c2ccc(Cl)c(Cl)c2)c2ccccc21` [Sertraline], in data set [3] (setting [4]), the half-maximal activity concentration (AC50) is more than 3.13 µM. Further, the AC50 in data set [3] (read-out: Cell count, AC50) amounted to 2.48 µM. The AC50 in [3] (read-out: DNA structure, AC50) amounted to 6.23 µM. The AC50 in [3] (read-out: Nuclear size, AC50) was more than 3.13 µM. In addition, in data set [3] (setting [5]), the AC50 is 0.351 µM. Further, in the data set on HepG2 cells, the “Cell count, MEC” value was determined as 1.61 µM; the “Cell count, Trend (↑↓)” value is given as “↓”; the “DNA structure, MEC” value came to 0.876 µM; the “DNA structure, Trend (↑↓)” value is “↑”. Further, in the data set on HepG2 cells, the “Phospholipidosis, MEC” value is less than 0.0977 µM; the “Phospholipidosis, Trend (↑↓)” value is listed as “↑”; the “Steatosis, Trend (↑↓)” value is reported as “↑”; the “Steatosis, MEC” value is 0.822 (NS) μM.
Take `Nc1ccc(S(=O)(=O)Nc2ccnn2-c2ccccc2)cc1` [Sulfaphenazole]: the activity at 20 min, 3 µM at CYP3A4 (CYP activity (% of Control) 3A4 (Midazolam)) came out at 98.7 ± 5.2%; on CYP3A4 (CYP activity (% of Control) 3A4 (Testosterone)), 95.9 ± 4.3%; on CYP1A2 [1], 98.1 ± 10.8%; on CYP2B6 it was 100 ± 5.8%; at CYP2C8, 97.6 ± 19.2%; at CYP2C9 (microsomes), 23.6 ± 3.3%. In addition, the activity at 20 min, 3 µM on CYP2C19 is 102 ± 6.5%; at CYP2D6, 94.8 ± 7.2%.
Consider `CC/C(=C(\c1ccccc1)c1ccc(OCCN(C)C)cc1)c1ccccc1` [Tamoxifen], for which the “Hepatocyte Viability, MTT Assay Upfront (Mean)” value in the data set with human hepatocytes (50 µM) came out at 4. Besides, the “Hepatocyte Viability, Concurrent MTT Assay (Mean)” value in the data set on human hepatocytes (Lot 336, 50 µM) was 2. For the same compound, the “Hepatocyte Viability, Concurrent MTT Assay (Mean)” value in the data set on human hepatocytes (Lot 348B, 50 µM) is 1. Further, the “Hepatocyte Viability, Concurrent MTT Assay (Mean)” value in the data set on human hepatocytes (Lot 399, 50 µM) worked out at 7. Besides, in data set [3] (setting [4]), the AC50 is 16.9 µM. Further, in data set [3] (read-out: Cell count, AC50), the concentration at half-maximal activity (AC50) was found to be 0.442 µM. Moreover, the AC50 in data set [3] (read-out: DNA structure, AC50) turned out to be 6.3 µM. Moreover, in data set [3] (read-out: Nuclear size, AC50), the AC50 was found to be 3.05 µM. Further, in data set [3] (setting [5]), the AC50 turned out to be 0.764 µM. Moreover, in the data set with HepG2 cells, the “Cell count, MEC” value stood at 0.360 µM; the “Cell count, Trend (↑↓)” value is “↑”; the “DNA structure, MEC” value came to 2.57 µM; the “DNA structure, Trend (↑↓)” value is “↑”. In the data set on HepG2 cells, the “Nuclear size, MEC” value was determined as 0.672 µM; the “Nuclear size, Trend (↑↓)” value is recorded as “↓”; the “Phospholipidosis, MEC” value is 0.447 µM; the “Steatosis, Trend (↑↓)” value is “↑”. Moreover, in the data set with HepG2 cells, the “Steatosis, MEC” value was 4.38 µM.
